Measurements as given in patent US9242981B2, “Fused pyrazole derivatives as novel ERK inhibitors” (Merck Sharp & Dohme Corp., priority 2010, dated 2016).

Target: Mouse ERK2 protein (Mus musculus (Mouse), UniProt P63085)
Assay: Coupled MEK1/ERK2 IMAP assay or Active ERK2 IMAP assay
Type: biochemical
Conditions: Table 1, class symbols, 30 μM ATP

Mouse ERK2 protein, sequence (P63085 whole entry): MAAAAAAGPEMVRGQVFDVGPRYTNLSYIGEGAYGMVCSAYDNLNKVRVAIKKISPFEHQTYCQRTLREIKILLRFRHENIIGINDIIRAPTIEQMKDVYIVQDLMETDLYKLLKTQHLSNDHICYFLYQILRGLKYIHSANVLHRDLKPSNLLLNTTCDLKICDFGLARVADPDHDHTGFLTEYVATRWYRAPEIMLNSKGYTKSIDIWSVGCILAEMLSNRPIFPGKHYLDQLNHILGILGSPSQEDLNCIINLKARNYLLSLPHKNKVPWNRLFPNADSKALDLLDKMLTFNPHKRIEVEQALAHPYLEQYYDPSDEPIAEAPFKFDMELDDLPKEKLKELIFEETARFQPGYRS

SMILES | IC50 [nM]
CCC1(NC(=O)N2CCc3[nH]nc(-c4ccnc(C)c4)c3C2)CCCN(Cc2c(F)cccc2F)C1 (centres unmarked) [Compound 92, N-[1-[(2,6-difluorophenyl)-methyl]-3-ethyl-3-piperidinyl]-1,4,6,7-tetrahydro-3-(2-methyl-4-pyridinyl)-5H-pyrazolo[4,3-c]pyridine-5-carboxamide] | 101 to 1000
CCC1(NC(=O)N2CCc3[nH]nc(-c4ccnc(C)c4)c3C2)CCCN(Cc2csc3ccccc23)C1 (centres unmarked) [Compound 93, N-[1-(benzo[b]thien-3-ylmethyl)-3-ethyl-3-piperidinyl]-1,4,6,7-tetrahydro-3-(2-methyl-4-pyridinyl)-5H-pyrazolo[4,3-c]pyridine-5-carboxamide] | 101 to 1000
Cc1cc(-c2n[nH]c3c2CN(C(=O)NC2CC(C)CN(Cc4c(C)cccc4C)C2)CC3)ccn1 (centres unmarked) [Compound 94, N-[1-[(2,6-dimethylphenyl)-methyl]-5-methyl-3-piperidinyl]-1,4,6,7-tetrahydro-3-(2-methyl-4-pyridinyl)-5H-pyrazolo[4,3-c]pyridine-5-carboxamide] | 21 to 100
Cc1cc(-c2n[nH]c3c2CN(C(=O)NC2CC(C)CN(Cc4c(F)cccc4C(F)(F)F)C2)CC3)ccn1 (centres unmarked) [Compound 95, N-[1-[[2-fluoro-6-(trifluoro-methyl)phenyl]methyl]-5-methyl-3-piperidinyl]-1,4,6,7-tetrahydro-3-(2-methyl-4-pyridinyl)-5H-pyrazolo[4,3-c]pyridine-5-carboxamide] | 101 to 1000
Cc1cc(-c2n[nH]c3c2CN(C(=O)NC2CC(C)CN(Cc4cnc5ccccc5c4)C2)CC3)ccn1 (centres unmarked) [Compound 96, 1,4,6,7-tetrahydro-3-(2-methyl-4-pyridinyl)-N-[5-methyl-1-(3-quinolinylmethyl)-3-piperidinyl]-5H-pyrazolo[4,3-c]pyridine-5-carboxamide] | 101 to 1000
COc1ccc2ccccc2c1CN1CCC[C@@H](NC(=O)N2CCc3[nH]nc(-c4ccnc(C)c4)c3C2)C1 [Compound 97, 1,4,6,7-tetrahydro-N-[1-[(2-Methoxy-1-naphthalenyl)-methyl]-3(R)-piperidinyl]-3-(2-methyl-4-pyridinyl)-5H-pyrazolo[4,3-c]pyridine-5-carboxamide] | 21 to 100
Cc1cc(-c2n[nH]c3c2CN(C(=O)N[C@@H]2CCCN(Cc4ccnc5ccccc45)C2)CC3)ccn1 [Compound 98] | 101 to 1000
COc1ccc(CN2CCC[C@@H](NC(=O)N3CCc4[nH]nc(-c5ccnc(C)c5)c4C3)C2)c2ccccc12 [Compound 99, 1,4,6,7-tetrahydro-N-[1-[(4-Methoxy-1-naphthalenyl)-methyl]-3(R)-piperidinyl]-3-(2-methyl-4-pyridinyl)-5H-pyrazolo[4,3-c]pyridine-5-carboxamide] | 21 to 100
Cc1cc(-c2n[nH]c3c2CN(C(=O)NC2CC(C)CN(Cc4csc5ccccc45)C2)CC3)ccn1 (centres unmarked) [Compound 101, N-[1-(benzo[b]thien-3-ylmethyl)-5-methyl-3-piperidinyl]-1,4,6,7-tetrahydro-3-(2-methyl-4-pyridinyl)-5H-pyrazolo[4,3-c]pyridine-5-carboxamide] | 21 to 100
Cc1cc(-c2n[nH]c3c2CN(C(=O)NC2CC(C)CN(Cc4cc5ccccc5n4C)C2)CC3)ccn1 (centres unmarked) [Compound 102, 1,4,6,7-tetrahydro-N-[5-methyl-1-[(1-methyl-1H-indol-2-yl)methyl]-3-piperidinyl]-3-(2-methyl-4-pyridinyl)-5H-pyrazolo[4,3-c]pyridine-5-carboxamide] | 21 to 100
Cc1cc(-c2n[nH]c3c2CN(C(=O)NC2CC(C)CN(Cc4ccccc4Cl)C2)CC3)ccn1 (centres unmarked) [Compound 103, N-[1-[(2-chlorophenyl)methyl]-5-methyl-3-piperidinyl]-1,4,6,7-tetrahydro-3-(2-methyl-4-pyridinyl)-5H-pyrazolo[4,3-c]pyridine-5-carboxamide] | 21 to 100
Cc1cc(-c2n[nH]c3c2CN(C(=O)NC2CC(C)CN(Cc4ccc5ccccc5n4)C2)CC3)ccn1 (stereo not drawn) [Compound 104, 1,4,6,7-tetrahydro-3-(2-methyl-4-pyridinyl)-N-[5-methyl-l-(2-quinolinylmethyl)-3-piperidinyl]-5H-pyrazolo[4,3-c]pyridine-5-carboxamide] | 21 to 100
Cc1cc(-c2n[nH]c3c2CN(C(=O)NC2CCC(c4ccccc4)NC2)CC3)ccn1 (centres unmarked) [Compound 105, 1,4,6,7-tetrahydro-3-(2-methyl-4-pyridinyl)-N-(6-phenyl-3-piperidinyl)-5H-pyrazolo[4,3-c]pyridine-5-carboxamide] | 101 to 1000
Cc1cc(-c2n[nH]c3c2CN(C(=O)NC2CCC(c4ccccc4)N(Cc4c(F)cccc4F)C2)CC3)ccn1 (centres unmarked) [Compound 106, N-[1-[(2,6-difluorophenyl)-methyl]-6-phenyl-3-piperidinyl]-1,4,6,7-tetrahydro-3-(2-methyl-4-pyridinyl)-5H-pyrazolo[4,3-c]pyridine-5-carboxamide] | 101 to 1000
O=C(NC1CC2CC1N(Cc1c(F)cccc1F)C2)N1CCc2[nH]nc(-c3ccncc3)c2C1 (centres unmarked) [Compound 107, N-[2-[(2,6-difluorophenyl)-methyl]-2-azabicyclo[2.2.1]-hept-6-yl]-1,4,6,7-tetrahydro-3-(4-pyridinyl)-5H-pyrazolo[4,3-c]pyridine-5-carboxamide] | 101 to 1000
COc1cccc(F)c1CN1CC2CC(NC(=O)N3CCc4[nH]nc(-c5ccncc5)c4C3)C1C2 (centres unmarked) [Compound 108, N-[2-[(2-fluoro-6-methoxyphenyl)methyl]-2-azabicyclo[2.2.1]hept-6-yl]-1,4,6,7-tetrahydro-3-(4-pyridinyl)-5H-pyrazolo[4,3-c]pyridine-5-carboxamide] | 101 to 1000
O=C(N[C@@H]1CCCN(Cc2c(F)cccc2F)C1)N1CCc2[nH]nc(-c3ccc4nccn4c3)c2C1 [Compound 111, N-[1-[(2,6-difluorophenyl)-methyl]-3(R)-piperidinyl]-1,4,6,7-tetrahydro-3-(imidazo[1,2-a]pyridin-6-yl)-5H-pyrazolo[4,3-c]pyridine-5-carboxamide] | < 20
O=C(NC1CC(O)CN(Cc2ccccc2Cl)C1)N1CCc2[nH]nc(-c3ccncc3)c2C1 (centres unmarked) [Compound 114, N-[1-[(2-chlorophenyl)-methyl]-5-hydroxy-3-piperidinyl]-1,4,6,7-tetrahydro-3-(4-pyridinyl)-5H-pyrazolo[4,3-c]pyridine-5-carboxamide] | < 20
Cc1cc(-c2n[nH]c3c2CN(C(=O)N[C@@H]2CCN(Cc4c(F)cccc4F)C2)CC3)ccn1 [Compound 115, N-[1-[(2,6-difluorophenyl)-methyl]-3(R)-pyrrolidinyl]-1,4,6,7-tetrahydro-3-(2-methyl-4-pyridinyl)-5H-pyrazolo[4,3-c]pyridine-5-carboxamide] | 101 to 1000
COc1cccc(F)c1CN1CC[C@@H](NC(=O)N2CCc3[nH]nc(-c4ccnc(C)c4)c3C2)C1 [Compound 116, N-[1-[(2-fluoro-6-methoxyphenyl)methyl]-3(R)-pyrrolidinyl]-1,4,6,7-tetrahydro-3-(2-methyl-4-pyridinyl)-5H-pyrazolo[4,3-c]pyridine-5-carboxamide] | 21 to 100
Cc1cc(-c2n[nH]c3c2CN(C(=O)N[C@@H]2CCN(Cc4c(F)cccc4Cl)C2)CC3)ccn1 [Compound 117, N-[1-[(2-chloro-6-fluorophenyl)methyl]-3(R)-pyrrolidinyl]-1,4,6,7-tetrahydro-3-(2-methyl-4-pyridinyl)-5H-pyrazolo[4,3-c]pyridine-5-carboxamide] | 21 to 100
Cc1cc(-c2n[nH]c3c2CN(C(=O)N[C@@H]2CCN(Cc4ccccc4Cl)C2)CC3)ccn1 [Compound 118, N-[1-[(2-chlorophenyl)-methyl]-3(R)-pyrrolidinyl]-1,4,6,7-tetrahydro-3-(2-methyl-4-pyridinyl)-5H-pyrazolo[4,3-c]pyridine-5-carboxamide] | 21 to 100
Cc1cc(-c2n[nH]c3c2CN(C(=O)N[C@@H]2CCN(Cc4c(C)cccc4C)C2)CC3)ccn1 [Compound 119, N-[1-[(2,6-dimethylphenyl)-methyl]-3(R)-pyrrolidinyl]-1,4,6,7-tetrahydro-3-(2-methyl-4-pyridinyl)-5H-pyrazolo[4,3-c]pyridine-5-carboxamide] | 21 to 100
Cc1cc(-c2n[nH]c3c2CN(C(=O)N[C@@H]2CCN(Cc4csc5ccccc45)C2)CC3)ccn1 [Compound 120, N-[1-(benzo[b]thien-3-ylmethyl)-3(R)-pyrrolidinyl]-1,4,6,7-tetrahydro-3-(2-methyl-4-pyridinyl)-5H-pyrazolo[4,3-c]pyridine-5-carboxamide] | < 20
COc1cccc(F)c1CN1CC(NC(=O)N2CCc3[nH]nc(-c4ccnc(C)c4)c3C2)CCC1C (centres unmarked) [Compound 121, N-[1-[(2-fluoro-6-methoxyphenyl)methyl]-6-methyl-3-piperidinyl]-1,4,6,7-tetrahydro-3-(2-methyl-4-pyridinyl)-5H-pyrazolo[4,3-c]pyridine-5-carboxamide] | 21 to 100
COc1cccc(F)c1CN1CCCC(NC(=O)N2CCc3[nH]nc(-c4ccnc(C)c4)c3C2)C1C (centres unmarked) [Compound 122, N-[1-[(2-fluoro-6-methoxyphenyl)methyl]-2-methyl-3-piperidinyl]-1,4,6,7-tetrahydro-3-(2-methyl-4-pyridinyl)-5H-pyrazolo[4,3-c]pyridine-5-carboxamide] | 101 to 1000
COc1ccc(-c2n[nH]c3c2CN(C(=O)N[C@@H]2CCCN(Cc4c(C)cccc4C)C2)CC3)cc1F [Compound 124, N-[1-[(2,6-dimethylphenyl)-methyl]-3(R)-piperidinyl]-3-(3-fluoro-4-methoxyphenyl)-1,4,6,7-tetrahydro-5H-pyrazolo[4,3-c]pyridine-5-carboxamide] | 21 to 100
COc1ccc(-c2n[nH]c3c2CN(C(=O)N[C@@H]2CCCN(Cc4c(C)cccc4C)C2)CC3)cn1 [Compound 125, N-[1-[(2,6-dimethylphenyl)-methyl]-3(R)-piperidinyl]-1,4,6,7-tetrahydro-3-(6-Methoxy-3-pyridinyl)-5H-pyrazolo[4,3-c]pyridine-5-carboxamide] | 21 to 100
Cc1cccc(C)c1CN1CCC[C@@H](NC(=O)N2CCc3[nH]nc(-c4ccc5nn(C)cc5c4)c3C2)C1 [Compound 126, N-[1-[(2,6-dimethylphenyl)-methyl]-3(R)-piperidinyl]-1,4,6,7-tetrahydro-3-(2-methyl-2H-indazol-5-yl)-5H-pyrazolo[4,3-c]pyridine-5-carboxamide] | < 20
